# Earlier results, collected in patent US11325892B2, “Compounds and methods for treating cancer” (Mayo Foundation for Medical Education and Research, priority 2014, dated 2022).
# Target: T1, SCD1 (Homo sapiens, UniProt O00767)
# T1 sequence (O00767 1-359): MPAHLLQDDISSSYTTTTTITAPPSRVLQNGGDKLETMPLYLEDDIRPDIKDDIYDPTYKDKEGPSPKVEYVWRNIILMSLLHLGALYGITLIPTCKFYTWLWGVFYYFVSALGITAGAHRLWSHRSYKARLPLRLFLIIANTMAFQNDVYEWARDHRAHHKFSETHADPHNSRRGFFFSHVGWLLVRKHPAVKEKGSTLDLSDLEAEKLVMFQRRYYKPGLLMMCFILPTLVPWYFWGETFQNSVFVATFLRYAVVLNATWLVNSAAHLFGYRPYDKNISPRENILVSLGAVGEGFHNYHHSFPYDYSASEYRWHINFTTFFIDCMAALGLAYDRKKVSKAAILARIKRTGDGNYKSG
# Conditions: known inhibitors; cited from earlier work
compound,measurement,value
CNC(=O)c1cccc(NC(=O)N2CCC(Oc3ccccc3Cl)CC2)c1 [A939572],IC50,37 nM
